Series [1] concerns arterial blood pressure and dp/dt max. (left ventricle). The experiment in a line: Cardiotonic and blood pressure effects in anesthetized cats. The conditions noted are these: 2 mg/kg intravenously; for Change in blood pressure (first value of the pair printed with a slash): first of two values; for Change in blood pressure (second value of the pair printed with a slash): second of two values; for change in vivo at 2 mg/kg: Felis catus, iv, dp/dt max., index of contractility, read-out: Increase in dp/dt. The format is in vivo, cat. The protocol:
1. Cardiotonic and blood pressure effects
Cats of both sexes with a body weight of 2 to 4 kg were anesthetized by intraperitoneal injection of 30 mgm/kg of sodium pentobarbital. The arterial blood pressure was measured by a Statham pressure transducer (P23 Dc) from the aorta abdominalis via a PVA-Catheter, which was inserted through the right arteria femoralis. The ventricle pressure was measured by a cathetertip manometer (type MILLAR PC-350), which was introduced into the left ventricle via the right arteria carotis. The indices of contractility dp/dt max. were obtained by a differentiating amplifier. The arterial blood pressure and dp/dt max. were continuously recorded by direct-writer. The test compounds were injected intravenously at 2 mg/kg.

The next series can be described thus: Acute toxicity in mice. To be noted: mouse, in vivo, dose at which 50% of the animals died.
Series [2] has as its system isolated electrically stimulated left auricle of the guinea pig. Put plainly: Effect on the effective refractory period of the isolated electrically stimulated left auricle of the guinea pig. To be noted: Cavia porcellus; Tyrode's solution, 37° C.; cumulative dosing; graphically determined from dose response curves; read-out: EC50 (concentration which reduces the maximum stimulation frequency by 50%). As to the method: 2. Effect on the effective refractory period of the isolated electrically stimulated left auricle of the guinea pig
Guinea pigs of both sexes were killed by a blow on the neck. After opening the thorax, the heart was quickly removed and transferred into a Tyrode's solution (37° C.). The auricles were separated from the ventricles along the Annulus fibrosus, and only the left auricles were used. Electrical stimulation was performed by a Grass stimulator, S4G, with square wave impulses of 1 millisecond duration and a stimulation voltage of 12 V. The auricles were suspended in Tyrode's solution at 37° C. containing 136.8 mVal NaCl, 2.68 mVal KCL, 0.2625 mVal MgCl2, 0.417 mVal NaH2 PO4, 11.9 mVal NaHCO3, 1.8 mVal CaCl, and 3 gm of glucose perliter. The solution was continuously aerated with O2 /CO2 (98%/2%). The isometric contractions were measured with a force displacement transducer and recorded on a Grass polygraph (P5). The number of the contractions was counted out and compared with the frequency indicated at the stimulator.
The maximum stimulation frequency was determined by increasing the stimulation rate every 10 seconds by 1 Hz. The maximum stimulation frequency was measured in preliminary tests by determining the average value. During the intervals of 5 minutes each between the measurements, the stimulation rate was 0.5 Hz.
After the determination of the average value the test compound was added to the Tyrode's solution and the stimulation rate was maintained at 0.5 Hz. During the first 5 minutes the inotropic effect of the compound was observed. Measurements were performed every 5 and 10 minutes after addition of the test compound. The average value resulting from the two tests (value at 5 minutes and 10 minutes, respectively) was taken as the maximum stimulation frequency after addition of the test compound. At first small doses were given, and after determination of the maximum stimulation frequency the dose was increased cumulatively and the maximum stimulation frequency for that dose was measured.
The maximum stimulation frequency is measured by increasing the stimulation rate. When the interval between two stimuli is shortened, a stimulation rate is reached at which every second stimulation falls into the refractory period of the foregoing contraction and will not be answered with a contraction. So, the maximum stimulation frequency is a measure of the effective refractory period. Compounds which reduce the maximum stimulation frequency, prolong the refractory period.
From the dose response curves the concentrations which reduce the maximum stimulation frequency by 50%, were graphically determined: […]

Series [3] concerns chloroform-induced ventricular fibrillation. The experiment in a line: Antiarrhythmic effect against chloroform-induced ventricular fibrillation in mice. The format is in vivo. To be noted: Mus musculus, 1 min, male mice, ventricular fibrillation prevented in 50% of animals. As to the method:
3. Antiarrhythmic effect against chloroform-induced ventricular fibrillation in mice
On placing a mouse into a chloroform-saturated atmosphere, the animal becomes anesthetized after 40 sec., the spontaneous respiration stops, and after 20 sec. more, gasping respiration sets in.
Immediately after the gasping respiration has ceased, the mouse is taken out of the chloroform atmosphere, the thorax is opened, and the heart is quickly exposed to allow inspection of the heart movement. For 1 minute after opening the thorax, spontaneous ventricular fibrillation occurs in nearly all the animals or can be induced by touching the heart with tweezers.
Pre-treatment with antiarrhythmic compounds reduces the number of animals which show fibrillation in a dose-dependent way. The dose which reduces the number of animals having fibrillations by 50% (ED50) is calculated by means of dose-response curves and the standard deviation is determined [MILLER, L. C. and TAINTER, M. L., Proc. Soc. Exp. Biol. Med. 57, 261 (1944)].
The tests were performed on male mice, body weight 20-25 gm. Each dose was tested on 10 animals.
The dose was determined, at which after i.v. and p.o. administration one minute before starting the test, the ventricular fibrillation was prevented in 50% of the animals.

[4] abbreviates: po, read-out: Toxicity (LD50) p.o.
[5] abbreviates: iv, i.v. one minute before test, read-out: ED50 i.v.
Setting [6] is: po, p.o. one minute before test, read-out: ED50 p.o.

Structures are written as SMILES. Structures can show the parent of a compound that is named as a salt. Where two headings read alike, the source gives them in different places. A value given as a limit tells only on which side of the number the result lay.

The LD50 is the dose expected to kill half of the subjects tested. One may read the ED50 as the midpoint of the dose-response relation.

`COc1ccc(-c2nc3ccc4c(c3[nH]2)C(=O)NC(=O)C4(C)C)c(OC)c1` [A, 7,7-Dimethyl-2-(2,4-dimethoxy-phenyl)-5H,7H-imidazo[4,5-h]isoquinoline-4,6-dione hydrochloride]: in series [1], the Duration was more than 24 min, the “Change in blood pressure (first value of the pair printed with a slash)” value is -49 mm Hg and the “Change in blood pressure (second value of the pair printed with a slash)” value is -48 mm Hg.
Consider `COc1cc(S(C)(=O)=O)ccc1-c1nc2ccc3c(c2[nH]1)C(=O)NC(=O)C3(C)C` [B, 7,7-Dimethyl-2-(2-methoxy-4-methylsulfonyl-phenyl)-5H,7H-imidazo[4,5-h]isoquinoline-4,6-dione], for which, in series [1], the Duration was more than 56 min, the “Change in blood pressure (first value of the pair printed with a slash)” value is -52 mm Hg and the “Change in blood pressure (second value of the pair printed with a slash)” value is reported as -80 mm Hg.
On the same counts, the results for `CC1(C)C(=O)NC(=O)c2c1ccc1[nH]c(CCc3ccccc3)nc21` [C] are more than 20 min, -40 mm Hg and -50 mm Hg.
As to `COc1ccccc1-c1nc2ccc3c(c2[nH]1)C(=O)NC(=O)C3(C)C` [Compound E, 7,7-Dimethyl-2-(2-methoxy-phenyl)-5H,7H-imidazo[4,5-h]isoquinoline-4,6-dione hydrochloride], in series [1], the Duration was 12 min, the “Change in blood pressure (first value of the pair printed with a slash)” value is -46 mm Hg and the “Change in blood pressure (second value of the pair printed with a slash)” value is given as -63 mm Hg.
Consider `CC1(C)C(=O)NC(=O)c2c1ccc1nc(Cc3ccccc3)[nH]c21` [D, 7,7-Dimethyl-2-benzyl-5H,7H-imidazo[4,5-h]isoquinoline-4,6-dione], for which, in series [1], the Duration is more than 57 min, the “Change in blood pressure (first value of the pair printed with a slash)” value is on record as -67 mm Hg, the “Change in blood pressure (second value of the pair printed with a slash)” value is -63 mm Hg and the change in vivo at 2 mg/kg was 110%. The LD50 in the series “Acute toxicity in mice” (setting [4]) was more than 300 mg/kg.
On to `CC1(C)C(=O)NC(=O)c2c1ccc1nc(C3CCCCC3)[nH]c21` [F], for which, in series [1], the Duration was more than 42 min, the “Change in blood pressure (first value of the pair printed with a slash)” value was -23 mm Hg and the “Change in blood pressure (second value of the pair printed with a slash)” value was -40 mm Hg. Moreover, the LD50 in “Acute toxicity in mice” (setting [4]) is more than 300 mg/kg.
With `CC1(C)C(=O)NC(=O)c2c1ccc1nc(-c3ccc(Cl)cc3)[nH]c21` [G, 7,7-Dimethyl-2-(4-chloro-phenyl)-5H,7H-imidazo[4,5-h]isoquinoline-4,6-dione hydrochloride], in series [1], the Duration came out at 9 min, the “Change in blood pressure (first value of the pair printed with a slash)” value was -40 mm Hg and the “Change in blood pressure (second value of the pair printed with a slash)” value is given as -30 mm Hg.
As to `CSc1ccc(-c2nc3ccc4c(c3[nH]2)C(=O)NC(=O)C4(C)C)cc1` [H, 7,7-Dimethyl-2-(4-methylmercapto-phenyl)-5H,7H-imidazo[4,5-h]isoquinoline-4,6-dione], in series [1], the Duration is more than 12 min, the “Change in blood pressure (first value of the pair printed with a slash)” value was -45 mm Hg and the “Change in blood pressure (second value of the pair printed with a slash)” value is -45 mm Hg.
Regarding `COc1ccc(-c2nc3ccc4c(c3[nH]2)C(=O)NC(=O)C4(C)C)cc1` [I, 7,7-Dimethyl-2-(4-methoxy-phenyl)-5H,7H-imidazo[4,5-h]isoquinoline-4,6-dione hydrochloride], in series [1], the Duration was more than 19 min, the “Change in blood pressure (first value of the pair printed with a slash)” value is reported as -33 mm Hg and the “Change in blood pressure (second value of the pair printed with a slash)” value is listed as -46 mm Hg.
On the same counts, the results for `CC1(C)C(=O)NC(=O)c2c1ccc1nc(-c3ccc(O)cc3)[nH]c21` [J, 7,7-Dimethyl-2-(4-hydroxy-phenyl)-5H,7H-imidazo[4,5-h]isoquinoline-4,6-dione hydrochloride] are more than 29 min, -47 mm Hg and -58 mm Hg.
As for `COc1ccc(S(C)(=O)=O)cc1-c1nc2ccc3c(c2[nH]1)C(=O)NC(=O)C3(C)C` [K, 7,7-Dimethyl-2-(2-methoxy-5-methylsulfonyl-phenyl)-5H,7H-imidazo[4,5-h]isoquinoline-4,6-dione], in series [1], the Duration is more than 107 min, the “Change in blood pressure (first value of the pair printed with a slash)” value is -70 mm Hg, the “Change in blood pressure (second value of the pair printed with a slash)” value is -67 mm Hg and the change in vivo at 2 mg/kg worked out at 157%. In “Acute toxicity in mice” (setting [4]), the LD50 was more than 300 mg/kg.
In the case of `COc1ccc([S+](C)[O-])cc1-c1nc2ccc3c(c2[nH]1)C(=O)NC(=O)C3(C)C` (centres unmarked) [L, 7,7-Dimethyl-2-(2-methoxy-5-methylsulfinyl-phenyl)-5H,7H-imidazo[4,6-h]isoquinoline-4,6-dione hydrochloride], in series [1], the Duration was more than 70 min, the “Change in blood pressure (first value of the pair printed with a slash)” value is listed as -42 mm Hg and the “Change in blood pressure (second value of the pair printed with a slash)” value was -53 mm Hg.
As for `CC1(C)C(=O)NC(=O)c2c1ccc1nc(C3CC3)[nH]c21` [M, hydrochloride], in series [1], the Duration is more than 55 min, the “Change in blood pressure (first value of the pair printed with a slash)” value was -41 mm Hg, the “Change in blood pressure (second value of the pair printed with a slash)” value was -49 mm Hg and the change in vivo at 2 mg/kg was 108%.
In the case of `CCN(CC)CCN1C(=O)c2c(ccc3nc(-c4ccccc4)[nH]c23)C(C)(C)C1=O` [N, 7,7-Dimethyl-2-phenyl-5-(2-diethylamino-ethyl)-5H,7H-imidazo[4,5-h]isoquinoline-4,6-dione dihydrochloride], the EC50 in series [2] was found to be 1.8 µg/mL. In addition, the ED50 was found to be 2.4 mg/kg in series [3] (setting [5]) and 21.2 mg/kg in series [3] (setting [6]).
Take `CCN(CC)CCCN1C(=O)c2c(ccc3nc(-c4ccccc4)[nH]c23)C(C)(C)C1=O` [O, 7,7-Dimethyl-2-phenyl-5-(3-diethylamino-propyl)-5H,7H-imidazo[4,5-h]isoquinoline-4,6-dione dihydrochloride]: in series [2], the EC50 is 5 µg/mL. Besides, the ED50 was determined as 6.4 mg/kg in series [3] (setting [5]) and 29 mg/kg in series [3] (setting [6]). For the same compound, the LD50 was 61 mg/kg in the series “Acute toxicity in mice” (ip, read-out: Toxicity (LD50) i.p.) and 92 mg/kg in the series “Acute toxicity in mice” (setting [4]).
As for `CC1(C)C(=O)N(CCCN2CCCCC2)C(=O)c2c1ccc1nc(-c3ccccc3)[nH]c21` [P, 7,7-Dimethyl-2-phenyl-5-(3-piperidino-propyl)-5H,7H-imidazo[4,5-h]isoquinoline-4,6-dione dihydrochloride], the EC50 in series [2] came to 6.7 µg/mL. The ED50 in series [3] (setting [5]) was 10.5 mg/kg; in series [3] (setting [6]), 130 mg/kg.
In the same order, the values of `CN(C)CCN1C(=O)c2c(ccc3nc(-c4ccccc4)[nH]c23)C(C)(C)C1=O` [Q, 7,7-Dimethyl-2-phenyl-5-(2-dimethylamino-ethyl)-5H,7H-imidazo[4,5-h]isoquinoline-4,6-dione-dihydrochloride] are 4.8 µg/mL, 6.1 mg/kg and 23.5 mg/kg.

Source of the values: patent US4176184A, “Imidazoisoquinoline-diones and salts thereof” (Boehringer Ingelheim GmbH, priority 1977, dated 1979).
